Measured values: US9796720B2, “Imidazole-derived modulators of the glucocorticoid receptor” (BRISTOL-MYERS SQUIBB COMPANY, priority 2013, dated 2017)
Where two headings read alike, the source gives them in different places.

Columns and labels:
AP-1 = experiment: Cellular transrepressional assay (AP-1 luciferase reporter in A549 cells, PMA-activated); format: cell-based; conditions: for EC50: read-out: AP-1 (EC50, nM) (measured in cellular transrepression assay); for Emax: read-out: AP-1 Max % inhibition (measured in cellular transrepression assay)
Procedure: Cellular Transrepressional Assay
To measure the ability of test molecules to inhibit AP-1 induced transcriptional activity we utilized an A549 cell which was stably transfected with a plasmid containing 7×AP-1 DNA binding sites (pAP-1-Luc plasmid, Stratagene Co. La Jolla, Calif.) followed by the gene for luciferase. Cells were activated with 10 ng/ml of phorbol myristic acid (PMA) plus or minus test molecules for 7 hours. After 7 hours a luciferase reagent was added to measure luciferase enzymatic activity in the cell. After a 10 minute incubation of luciferase reagent with cells, luminescence was measured in a TOPCOUNT® luminescence counter. Repression of AP-1 activity was calculated as the percentage decrease in the signal induced by PMA alone. Test molecules were analyzed in the concentration range from 0.1 nM to 40 μM. EC50s were determined by using standard curve fitting methods such as Excel fit (Microsoft Co.). An EC50 is the test molecule concentration at which there is a 50% repression of the maximal inhibition of transcription, i.e., a 50% reduction of AP-1 activity.

[1] = target: human full-length glucocorticoid receptor (Homo sapiens (Human), UniProt P04150); experiment: Glucocorticoid Receptor Binding Assay (II), fluorescence polarization competitor assay; conditions: recombinant human full-length GR cell lysate, Fluormone GS1; read-out: GR (Ki, nM) (measured in GR binding Assay II)
Procedure: Glucocorticoid Receptor Binding Assay (II)
In order to measure the binding of compounds on the glucocorticoid receptor a commercially available kit was used (Glucocorticoid receptor competitor assay kit, PanVera Co., Madison, Wis., P2816). Briefly, a cell lysate containing recombinantly expressed human full-length glucocorticoid receptor was mixed with a fluorescently labeled glucocorticoid (1 nM Fluormone GS1) in the presence or absence of test compound. After one hour at room temperature, the fluorescence polarization (FP) of the samples were measured.

[2] = A549 cells, 7xAP-1 luciferase, PMA 10 ng/ml, 7 hours

Sequence of human full-length glucocorticoid receptor (P04150 whole entry): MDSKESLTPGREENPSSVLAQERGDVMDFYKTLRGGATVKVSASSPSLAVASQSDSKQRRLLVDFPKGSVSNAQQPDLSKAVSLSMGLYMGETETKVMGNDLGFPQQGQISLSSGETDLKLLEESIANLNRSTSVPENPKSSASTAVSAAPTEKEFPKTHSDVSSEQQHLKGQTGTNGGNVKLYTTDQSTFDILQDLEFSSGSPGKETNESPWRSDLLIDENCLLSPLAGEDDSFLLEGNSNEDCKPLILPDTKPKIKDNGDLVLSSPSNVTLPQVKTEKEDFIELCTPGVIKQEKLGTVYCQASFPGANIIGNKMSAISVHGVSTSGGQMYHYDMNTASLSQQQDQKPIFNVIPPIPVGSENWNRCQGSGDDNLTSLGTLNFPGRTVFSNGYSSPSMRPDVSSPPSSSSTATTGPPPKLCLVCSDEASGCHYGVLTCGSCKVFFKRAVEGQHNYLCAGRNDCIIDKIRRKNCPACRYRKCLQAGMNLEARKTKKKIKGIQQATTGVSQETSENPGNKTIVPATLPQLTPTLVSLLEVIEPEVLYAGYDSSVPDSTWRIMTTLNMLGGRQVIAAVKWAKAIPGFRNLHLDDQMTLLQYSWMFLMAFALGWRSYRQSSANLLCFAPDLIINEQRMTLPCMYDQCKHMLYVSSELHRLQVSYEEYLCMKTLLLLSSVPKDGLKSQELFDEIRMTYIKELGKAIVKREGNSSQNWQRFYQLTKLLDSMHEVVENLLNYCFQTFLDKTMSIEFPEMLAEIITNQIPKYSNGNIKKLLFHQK

Structure (SMILES) | EC50 (AP-1; [2]) [nM] | Ki [1] [nM] | Emax (AP-1; [2]) [%] | EC50 (AP-1; 7 h) [nM] | Emax (AP-1; 7 h) [%]
CC(=O)c1ccc(-c2ccc3c(n2)Oc2c(F)cccc2[C@@H]3C(C)(C)c2nc3nccnc3[nH]2)cc1 [Example 2, (S)-1-(4-(5-(2-(1H-Imidazo[4,5-b]pyrazin-2-yl)propan-2-yl)-9-fluoro-5H-chromeno[2,3-b]pyridin-2-yl)phenyl)ethanone] | – | 3.28 | – | 4.39 | 59.7
CC(C)(c1nc2nccnc2[nH]1)[C@@H]1c2ccc(-c3ccc(C(=O)N4CCOCC4)nc3)nc2Oc2c(F)cccc21 [Example 30, (S)-(5-(5-(2-(1H-Imidazo[4,5-b]pyrazin-2-yl)propan-2-yl)-9-fluoro-5H-chromeno[2,3-b]pyridin-2-yl)pyridin-2-yl)(morpholino)methanone] | 179 | 30.3 | 57 | – | –
CC(C)(c1nc2cccnc2[nH]1)[C@@H]1c2ccc(-c3ccc(C(=O)N4CCOCC4)cc3)nc2Oc2c(F)cccc21 [Example 15, (S)-(4-(5-(2-(3H-Imidazo[4,5-b]pyridin-2-yl)propan-2-yl)-9-fluoro-5H-chromeno[2,3-b]pyridin-2-yl)phenyl)(morpholino)methanone] | 864 | 121 | 29.3 | – | –
CC(C)(c1nc2cncnc2[nH]1)[C@@H]1c2ccc(-c3ccc(C(=O)N4CCOCC4)cc3)nc2Oc2c(F)cccc21 [Example 16, (S)-(4-(5-(2-(9H-Purin-8-yl)propan-2-yl)-9-fluoro-5H-chromeno[2,3-b]pyridin-2-yl)phenyl)(morpholino)methanone] | 169 | 12.4 | 52.2 | – | –
CC(C)S(=O)(=O)c1ccc(-c2ccc3c(n2)Oc2c(F)cccc2[C@@H]3C(C)(C)c2nc3nccnc3[nH]2)cc1 [Example 7, (S)-5-(2-(1H-Imidazo[4,5-b]pyrazin-2-yl)propan-2-yl)-9-fluoro-2-(4-(isopropylsulfonyl)phenyl)-5H-chromeno[2,3-b]pyridine] | – | 1.4 | – | 12.2 | 54.2
CC(C)(C)Oc1ccc(-c2ccc3c(n2)Oc2c(F)cccc2[C@@H]3C(C)(C)c2nc3nccnc3[nH]2)cc1 [Example 11, (S)-5-(2-(1H-Imidazo[4,5-b]pyrazin-2-yl)propan-2-yl)-2-(4-tert-butoxyphenyl)-9-fluoro-5H-chromeno[2,3-b]pyridine] | – | 0.82 | – | 37.5 | 76.3
CC(C)(c1nc2nccnc2[nH]1)[C@@H]1c2ccc(-c3ccc(S(C)(=O)=O)cc3)nc2Oc2c(F)cccc21 [Example 5, (S)-5-(2-(1H-Imidazo[4,5-b]pyrazin-2-yl)propan-2-yl)-9-fluoro-2-(4-(methylsulfonyl)phenyl)-5H-chromeno[2,3-b]pyridine] | – | 2.89 | – | 29.5 | 55.8
CC(C)(c1nc2ccccc2[nH]1)[C@@H]1c2ccc(-c3ccc(C(=O)N4CCOCC4)cc3)nc2Oc2c(F)cccc21 [Example 14, (S)-(4-(5-(2-(1H-Benzo[d]imidazol-2-yl)propan-2-yl)-9-fluoro-5H-chromeno[2,3-b]pyridin-2-yl)phenyl)(morpholino)methanone] | 284 | 16.1 | 31.6 | – | –
CC(C)(c1nc2nccnc2[nH]1)[C@@H]1c2ccc(-c3ccc(N4CCOCC4)cc3)nc2Oc2c(F)cccc21 [Example 18, (S)-5-(2-(1H-Imidazo[4,5-b]pyrazin-2-yl)propan-2-yl)-9-fluoro-2-(4-morpholinophenyl)-5H-chromeno[2,3-b]pyridine] | 61.1 | 16 | 50.6 | – | –
Cn1nnnc1-c1ccc(-c2ccc3c(n2)Oc2c(F)cccc2[C@@H]3C(C)(C)c2nc3nccnc3[nH]2)cc1 [Example 31, (S)-5-(2-(1H-Imidazo[4,5-b]pyrazin-2-yl)propan-2-yl)-9-fluoro-2-(4-(1-methyl-1H-tetrazol-5-yl)phenyl)-5H-chromeno[2,3-b]pyridine] | 15 | 1.94 | 48.6 | – | –
CC(C)(c1nc2nccnc2[nH]1)[C@@H]1c2ccc(-c3ccc(OC(F)(F)F)cc3)nc2Oc2c(F)cccc21 [Example 13, (S)-5-(2-(1H-Imidazo[4,5-b]pyrazin-2-yl)propan-2-yl)-9-fluoro-2-(4-(trifluoromethoxy)phenyl)-5H-chromeno[2,3-b]pyridine] | 55.1 | 2.36 | 55.5 | – | –

Second part, led by results:

EC50 (AP-1; [2]) [nM] | Ki [1] [nM] | Structure (SMILES) | Emax (AP-1; [2]) [%] | EC50 (AP-1; 7 h) [nM] | Emax (AP-1; 7 h) [%]
14.2 | 1.4 | CC(C)(c1nc2nccnc2[nH]1)[C@@H]1c2ccc(-c3ccccc3)nc2Oc2c(F)cccc21 [Example 20, (S)-5-(2-(1H-Imidazo[4,5-b]pyrazin-2-yl)propan-2-yl)-9-fluoro-2-phenyl-5H-chromeno[2,3-b]pyridine] | 40 | – | –
28.4 | 9.3 | CC(C)(O)c1ccc(-c2ccc3c(n2)Oc2c(F)cccc2[C@@H]3C(C)(C)c2nc3nccnc3[nH]2)cn1 [Example 27, (S)-2-(5-(5-(2-(1H-Imidazo[4,5-b]pyrazin-2-yl)propan-2-yl)-9-fluoro-5H-chromeno[2,3-b]pyridin-2-yl)pyridin-2-yl)propan-2-ol] | 53.6 | – | –
15.5 | 2.34 | CCS(=O)(=O)c1ccc(-c2ccc3c(n2)Oc2c(F)cccc2[C@@H]3C(C)(C)c2nc3nccnc3[nH]2)cc1 [Example 6, (S)-5-(2-(1H-Imidazo[4,5-b]pyrazin-2-yl)propan-2-yl)-2-(4-(ethylsulfonyl)phenyl)-9-fluoro-5H-chromeno[2,3-b]pyridine] | 58.2 | – | –
21.1 | 3.92 | CC(C)(c1nc2nccnc2[nH]1)[C@@H]1c2ccc(-c3ccncc3)nc2Oc2c(F)cccc21 [Example 21, (S)-5-(2-(1H-Imidazo[4,5-b]pyrazin-2-yl)propan-2-yl)-9-fluoro-2-(pyridin-4-yl)-5H-chromeno[2,3-b]pyridine] | 45.9 | – | –
31.7 | 2.78 | CC(C)Oc1ccc(-c2ccc3c(n2)Oc2c(F)cccc2[C@@H]3C(C)(C)c2nc3nccnc3[nH]2)cn1 [Example 25, (S)-5-(2-(1H-Imidazo[4,5-b]pyrazin-2-yl)propan-2-yl)-9-fluoro-2-(6-isopropoxypyridin-3-yl)-5H-chromeno[2,3-b]pyridine] | 57.8 | – | –
5000 | 28.6 | CC(C)(c1nc2nccnc2[nH]1)[C@@H]1c2ccc(-c3ccc(F)nc3)nc2Oc2c(F)cccc21 [Example 28, (S)-5-(2-(1H-Imidazo[4,5-b]pyrazin-2-yl)propan-2-yl)-9-fluoro-2-(6-fluoropyridin-3-yl)-5H-chromeno[2,3-b]pyridine] | 16.4 | – | –
3.85 | 2.35 | CC(C)(O)c1ccc(-c2ccc3c(n2)Oc2c(F)cccc2[C@@H]3C(C)(C)c2nc3nccnc3[nH]2)cc1 [Example 3, (S)-2-(4-(5-(2-(1H-Imidazo[4,5-b]pyrazin-2-yl)propan-2-yl)-9-fluoro-5H-chromeno[2,3-b]pyridin-2-yl)phenyl)propan-2-ol] | 65 | – | –
1950 | 70.5 | CC(=O)Nc1ccc(-c2ccc3c(n2)Oc2c(F)cccc2[C@@H]3C(C)(C)c2nc3nccnc3[nH]2)cc1 [Example 19, (S)-N-(4-(5-(2-(1H-Imidazo[4,5-b]pyrazin-2-yl)propan-2-yl)-9-fluoro-5H-chromeno[2,3-b]pyridin-2-yl)phenyl)acetamide] | 44.6 | – | –
